Measured values: US20250360152A1, “NUTRITIONAL COMPOSITION FOR PREVENTING BRONCHITIS” (MEGMILK SNOW BRAND Co., Ltd., priority 2022, published 2025)

Tests used:
[1] = system: onset of bronchitis in infants; assay: Logistic regression: breast milk carbohydrate component concentrations vs onset of bronchitis in infants during first year of life (153 samples); assay type: in vivo, human; conditions: for Odds ratio: concentration in breast milk vs onset of infant bronchitis within one year, adjusted for sex, siblings, method of delivery, birth weight; for Relationship between concentration and the onset of bronchitis (in words) / Regression coefficient: logistic regression; for Regression coefficient: concentration in breast milk vs onset of infant bronchitis
Procedure: Various carbohydrate components were measured for 153 breast milk samples, analyzing a relationship with a presence or absence of the onset of bronchitis in infants during the first year of life using a logistic regression.
(§1) Bean Stalk Snow Co., Ltd. Conducted a prospective cohort study (UMIN ID 000015494) from 2014 to 2019 for investigating the relationship between the breast milk components of Japanese and a health status of mothers and children in Japan. In the study, breast milk samples collected from 1,210 mothers and questionnaire results of investigating the health status of mothers and children were used in the study. In addition, 200 samples were randomly selected from the 1,210 samples. The breast milk collected between 1 and 2 months after childbirth was used as the breast milk samples for analysis. Parents filled out questionnaires investigating the health status of their infants six times in total, every two months for one year after birth, and the results were collected. From the questionnaire results, the results were compiled of whether or not the infants were diagnosed with the bronchitis by a doctor within one year after the childbirth. If a description of a presence or absence of the onset of bronchitis was unclear, they were excluded from the study.
(§2) As a result, in the questionnaires conducted six times in total in a year, for 153 samples, questionnaires were answered correctly about whether the infants had been diagnosed with the bronchitis, and the samples became subjects to be analyzed in the study. Of the 153 samples, 18 samples were from infants diagnosed with the bronchitis within one year of birth.
For the 153 breast milk samples, the relationship between the concentrations of N-acetylneuraminic acid, the oligosaccharide, the N-linked glycan, the O-linked glycan, the disialo N-linked glycan A, and the disialo N-linked glycan B and the onset of infant bronchitis was analyzed using the logistic regression. Sex of the infant, a presence or absence of siblings, the method of delivery (natural birth, cesarean section), and a birth weight were used as adjustment factors.

[2] = system: onset of bronchitis in infants; assay: Two-group comparison of breast milk concentrations (infants ever vs never contracted bronchitis) and Fisher's exact test at a cut-off concentration; assay type: in vivo, human; conditions: for Concentration in the breast milk that reduces the risk of contracting the bronchitis: cut-off of Fisher's exact test; for Concentration in breast milk consumed by infants who had never contracted bronchitis versus infants who had ever contracted bronchitis: two groups, FIG. 1-5
Source text: as §1, §2
The breast milk samples were divided into two groups, based on whether or not the infants had ever contracted the bronchitis, comparing the total N-acetylneuraminic acids concentrations in the breast milk. […] A distribution range of the total N-acetylneuraminic acids concentrations in the breast milk consumed by the infants who had never contracted the bronchitis was 181-977 mg/L, with a median of 395 mg/L (Table 2). The distribution of the total N-acetylneuraminic acids concentrations was, different from a normal distribution, a distribution spreading out its tail towards its higher end of concentrations. Such a distribution is seen in the distribution of heights and weights of the infants, and the 3rd to 97th percentile of the overall distribution is used as standards when creating growth curves for infants (Infant Physical Development Survey Report 2000). Based on this, the 3rd to 97th percentile was used as a standard range of the total N-acetylneuraminic acids concentrations in the breast milk. A minimum value of the total N-acetylneuraminic acid concentration in the breast milk consumed by the infants who had never contracted the bronchitis was 221 mg/L corresponding to the 3rd percentile of the distribution.

Compound: CC(=O)N[C@H]1[C@H]([C@H](O)[C@H](O)CO)O[C@@](O[C@H]2[C@@H](O)[C@@H](CO)O[C@@H](O[C@H]3[C@H](O)[C@@H](O)C(O)O[C@@H]3CO)[C@@H]2O)(C(=O)O)C[C@@H]1O (some centres unmarked) [3′-SL, 3′-sialyllactose, reference compound]
- Odds ratio [1]: 0.53
- Relationship between concentration and the onset of bronchitis (in words) [1]: not observed
- Regression coefficient [1]: −0.626

Compound: CC(=O)N[C@H]1[C@H]([C@H](O)[C@H](O)CO)O[C@@](OC[C@H]2O[C@@H](O[C@H]3[C@H](O)[C@@H](O)[C@H](O)O[C@@H]3CO)[C@H](O)[C@@H](O)[C@H]2O)(C(=O)O)C[C@@H]1O [6′-SL, 6′-sialyllactose]
- Concentration in the breast milk that reduces the risk of contracting the bronchitis [2]: ≥ 135 mg/L
- Concentration in breast milk consumed by infants who had never contracted bronchitis versus infants who had ever contracted bronchitis [2]: significantly higher

Compound: Neu5Acα2-6Galβ1-4GlcNAcβ1-2Manαl-3 (Neu5Acα2-6Galβ1-4GlcNAcβ1-2Manα1-6) Manβ1-4GlcNAcβ1-4GlcNAc [Disialo N-linked glycan A]
- Odds ratio [1]: 0.15
- Regression coefficient [1]: −1.918
- Regression coefficient ([1]; listed as disialo N-linked glycan A): negative
- Concentration in the breast milk that reduces the risk of contracting the bronchitis [2]: ≥ 0.313 µmol/L
- Concentration in breast milk consumed by infants who had never contracted bronchitis versus infants who had ever contracted bronchitis [2]: significantly higher

Compound: CC(=O)N[C@H]1[C@H]([C@H](O)[C@H](O)CO)OC(O)(C(=O)O)C[C@@H]1O (some centres unmarked) [Total N-acetylneuraminic acid, N-acetylneuraminic acid]
- Odds ratio [1]: 0.098
- Relationship between concentration and the onset of bronchitis (in words) [1]: statistically significant relationship
- Regression coefficient [1]: −2.32
- Concentration in the breast milk that reduces the risk of contracting the bronchitis [2]: ≥ 246 mg/L
- Concentration in breast milk consumed by infants who had never contracted bronchitis versus infants who had ever contracted bronchitis [2]: significantly higher

Compound: Neu5Acα2-6Galβ1-4GlcNAcβ1-2Manα1-3 (Neu5Acα2-6Galβ1-4GlcNAcβ1-2Manα1-6) Manβ1-4GlcNAcβ1-4 (Fucα1-6) GlcNAc [Disialo N-linked glycan B]
- Odds ratio [1]: 0.24
- Regression coefficient [1]: −1.407
- Regression coefficient ([1]; listed as disialo N-linked glycan B): negative
- Concentration in the breast milk that reduces the risk of contracting the bronchitis [2]: ≥ 0.245 µmol/L
- Concentration in breast milk consumed by infants who had never contracted bronchitis versus infants who had ever contracted bronchitis [2]: significantly higher
